Measured values from ChEMBL document CHEMBL2073818, “St John's Wort induces intestinal P-glycoprotein/MDR1 and intestinal and hepatic CYP3A4” (Clin Pharmacol Ther, 2000).

Molecular target: ATP-dependent translocase ABCB1 (Homo sapiens, UniProt P08183)
Assay: TP_TRANSPORTER: Western in vivo human
Assay type: functional, organism-based

Chain of ATP-dependent translocase ABCB1 (P08183 whole entry): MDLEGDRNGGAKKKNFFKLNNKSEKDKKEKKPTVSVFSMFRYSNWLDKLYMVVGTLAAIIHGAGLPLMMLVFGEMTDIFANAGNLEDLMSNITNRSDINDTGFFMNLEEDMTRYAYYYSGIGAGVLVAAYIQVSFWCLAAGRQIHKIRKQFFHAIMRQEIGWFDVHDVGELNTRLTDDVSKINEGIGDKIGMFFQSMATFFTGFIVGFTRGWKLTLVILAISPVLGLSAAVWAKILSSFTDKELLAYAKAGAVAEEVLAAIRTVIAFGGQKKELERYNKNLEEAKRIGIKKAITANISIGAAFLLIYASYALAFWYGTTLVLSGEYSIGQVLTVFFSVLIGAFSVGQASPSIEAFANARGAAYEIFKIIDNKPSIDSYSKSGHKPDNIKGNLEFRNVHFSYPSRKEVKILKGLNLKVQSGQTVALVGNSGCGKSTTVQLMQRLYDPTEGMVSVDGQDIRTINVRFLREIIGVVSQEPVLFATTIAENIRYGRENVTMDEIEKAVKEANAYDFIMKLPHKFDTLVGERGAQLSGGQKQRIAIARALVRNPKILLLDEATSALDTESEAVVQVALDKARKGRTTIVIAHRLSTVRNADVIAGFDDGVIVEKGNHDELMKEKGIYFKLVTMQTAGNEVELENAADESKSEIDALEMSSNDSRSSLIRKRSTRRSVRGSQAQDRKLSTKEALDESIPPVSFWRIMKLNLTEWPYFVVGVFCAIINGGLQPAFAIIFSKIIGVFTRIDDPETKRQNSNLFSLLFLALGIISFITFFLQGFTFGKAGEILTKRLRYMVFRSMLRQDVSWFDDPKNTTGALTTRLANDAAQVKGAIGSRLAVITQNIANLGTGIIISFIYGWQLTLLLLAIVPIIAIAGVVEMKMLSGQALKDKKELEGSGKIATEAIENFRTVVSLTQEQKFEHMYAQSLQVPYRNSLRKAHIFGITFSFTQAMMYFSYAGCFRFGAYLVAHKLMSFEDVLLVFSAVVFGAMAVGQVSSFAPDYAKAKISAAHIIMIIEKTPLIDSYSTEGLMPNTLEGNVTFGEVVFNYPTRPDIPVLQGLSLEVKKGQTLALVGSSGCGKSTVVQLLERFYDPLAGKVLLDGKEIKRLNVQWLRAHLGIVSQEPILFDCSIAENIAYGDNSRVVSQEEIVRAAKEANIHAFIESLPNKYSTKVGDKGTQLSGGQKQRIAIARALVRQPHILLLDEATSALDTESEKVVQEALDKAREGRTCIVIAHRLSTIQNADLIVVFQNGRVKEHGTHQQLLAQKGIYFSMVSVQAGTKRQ

Activity: inducer [+]
Substance: ST. JOHN'S WORT
